Like-named read-outs stand apart in the source and are kept apart here.
How the values were obtained:
[1] = target: T1, BSA (Bos taurus, UniProt P02769); parameters: Intact protein LC/MS covalent labelling, fragments in pools of five, 200 uM each, 4 °C; settings: 24 h, 4 °C, pool of five; 200 µM; covalent
T1 construct: gene ALB

[2] = target: T2, NNMT (hNNMT) (Homo sapiens, UniProt P40261); parameters: Intact protein LC/MS covalent labelling, fragments in pools of five, 200 uM each, 4 °C; settings: 24 h, 4 °C, pool of five; 200 µM; covalent
T2 construct: wild type, N-terminal His6 tag kept (no cleavage described), E. coli, construct 31248 Da
T2 sequence (P40261 1-264): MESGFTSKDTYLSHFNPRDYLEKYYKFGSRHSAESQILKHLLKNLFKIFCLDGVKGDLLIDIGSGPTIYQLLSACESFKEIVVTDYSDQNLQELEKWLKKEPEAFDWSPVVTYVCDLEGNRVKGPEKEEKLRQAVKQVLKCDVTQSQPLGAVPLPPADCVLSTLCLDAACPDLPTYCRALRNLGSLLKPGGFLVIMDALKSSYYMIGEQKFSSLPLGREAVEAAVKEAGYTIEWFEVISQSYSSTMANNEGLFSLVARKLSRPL

[3] = target: T3, NUDT7 (Homo sapiens, UniProt P0C024); parameters: Intact protein LC/MS covalent labelling, fragments in pools of five, 200 uM each, 4 °C; settings: 24 h, 4 °C, pool of five; 200 µM; covalent
T3 construct: residues 14-235, E. coli, pNIC28-Bsa4, N-terminal His6 tag removed by TEV, construct 26672 Da
T3 sequence (P0C024 14-235): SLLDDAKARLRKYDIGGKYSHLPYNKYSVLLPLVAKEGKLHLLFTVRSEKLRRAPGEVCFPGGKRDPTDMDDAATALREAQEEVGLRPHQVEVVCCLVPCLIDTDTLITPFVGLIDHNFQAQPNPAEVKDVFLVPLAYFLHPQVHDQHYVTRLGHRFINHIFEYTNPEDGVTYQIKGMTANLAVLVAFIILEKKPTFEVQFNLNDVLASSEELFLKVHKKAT

[4] = target: T4, OTUB2 (OTUB2A) (Homo sapiens, UniProt Q96DC9); parameters: Intact protein LC/MS covalent labelling, fragments in pools of five, 200 uM each, 4 °C; settings: 24 h, 4 °C, pool of five; 200 µM; covalent
T4 construct: full length residues 1-234, E. coli BL21(DE3)-R3, His tag removed by TEV, construct 27312 Da
T4 sequence (Q96DC9 1-234): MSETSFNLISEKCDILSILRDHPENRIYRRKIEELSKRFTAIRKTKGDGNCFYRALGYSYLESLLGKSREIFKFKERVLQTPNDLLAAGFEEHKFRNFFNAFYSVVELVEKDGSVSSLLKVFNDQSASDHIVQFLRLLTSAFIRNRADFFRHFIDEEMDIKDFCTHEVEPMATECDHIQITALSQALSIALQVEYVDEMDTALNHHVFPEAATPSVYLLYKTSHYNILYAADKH

[5] = target: T5, PCAF (Homo sapiens, UniProt Q92831); parameters: Intact protein LC/MS covalent labelling, fragments in pools of five, 200 uM each, 4 °C; settings: 24 h, 4 °C, pool of five; 200 µM; covalent
T5 construct: gene KAT2B
T5 sequence (Q92831 whole entry, the tested form may be a part): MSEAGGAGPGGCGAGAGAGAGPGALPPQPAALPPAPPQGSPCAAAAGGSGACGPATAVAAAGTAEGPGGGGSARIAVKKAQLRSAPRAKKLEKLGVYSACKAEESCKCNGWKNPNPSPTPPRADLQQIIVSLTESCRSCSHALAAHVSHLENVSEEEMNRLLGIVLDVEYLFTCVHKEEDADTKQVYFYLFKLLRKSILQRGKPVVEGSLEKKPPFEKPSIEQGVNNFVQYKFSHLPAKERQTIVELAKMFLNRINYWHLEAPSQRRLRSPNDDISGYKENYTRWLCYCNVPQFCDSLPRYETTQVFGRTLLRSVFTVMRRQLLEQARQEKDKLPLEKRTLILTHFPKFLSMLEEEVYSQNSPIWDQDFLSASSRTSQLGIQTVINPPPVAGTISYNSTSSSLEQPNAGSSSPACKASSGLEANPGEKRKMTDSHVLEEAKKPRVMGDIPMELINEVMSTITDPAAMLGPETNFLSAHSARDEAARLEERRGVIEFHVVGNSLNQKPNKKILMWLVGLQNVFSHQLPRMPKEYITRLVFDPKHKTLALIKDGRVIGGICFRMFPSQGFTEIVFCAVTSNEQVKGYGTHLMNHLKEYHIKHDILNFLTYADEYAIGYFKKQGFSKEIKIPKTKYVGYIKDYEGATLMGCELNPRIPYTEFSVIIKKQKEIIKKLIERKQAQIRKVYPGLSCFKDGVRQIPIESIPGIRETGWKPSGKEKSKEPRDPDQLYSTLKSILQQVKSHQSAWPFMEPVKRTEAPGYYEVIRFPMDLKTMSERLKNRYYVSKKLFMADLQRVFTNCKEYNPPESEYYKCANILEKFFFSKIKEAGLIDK

[6] = in vitro; parameters: species or system CCD841, HEK293; settings: human, hb2 cells, read-out: HB-2 Cells Viability (%)
[7] = in vitro; parameters: species or system HB2, HEK293; settings: human, ccd841 cells
[8] = in vitro; parameters: species or system HB2, CCD841; settings: human, hek293 cells

T1 sequence (P02769 whole entry, the tested form may be a part): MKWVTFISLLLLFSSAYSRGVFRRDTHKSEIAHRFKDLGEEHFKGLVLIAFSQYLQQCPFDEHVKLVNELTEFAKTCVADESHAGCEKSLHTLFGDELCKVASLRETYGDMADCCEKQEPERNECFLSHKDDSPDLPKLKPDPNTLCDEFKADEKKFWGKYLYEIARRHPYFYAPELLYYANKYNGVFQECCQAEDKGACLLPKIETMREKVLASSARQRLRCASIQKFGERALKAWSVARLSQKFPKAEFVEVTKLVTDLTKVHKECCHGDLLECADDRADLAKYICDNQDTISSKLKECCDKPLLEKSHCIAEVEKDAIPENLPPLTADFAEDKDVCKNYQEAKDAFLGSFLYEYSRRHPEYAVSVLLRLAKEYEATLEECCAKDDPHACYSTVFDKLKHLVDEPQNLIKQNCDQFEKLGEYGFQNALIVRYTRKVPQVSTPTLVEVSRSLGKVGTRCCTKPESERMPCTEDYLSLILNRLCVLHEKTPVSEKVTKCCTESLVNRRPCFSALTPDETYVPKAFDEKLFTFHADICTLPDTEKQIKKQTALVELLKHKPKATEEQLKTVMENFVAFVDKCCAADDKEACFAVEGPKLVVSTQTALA

BSA [1]	NNMT [2]	NUDT7 [3]	OTUB2 [4]	PCAF [5]	Compound	viability at 48 h, 10 µM [6]	viability at 48 h, 10 µM [7]	viability at 48 h, 10 µM [8]
0.18	0.25	0	0.19	0	N#CCN(C(=O)CCl)c1ccccc1 [PCM-0102471]	43.7%	24.4%	16%
0	0	0	0	0	C=CC(=O)N1CCC2(CCN(C)C2=O)CC1 [PCM-0102475]	94.8%	100%	85.3%
0	0	0	0	0	O=C(CCl)N1CCNCC1.O=C(O)C(F)(F)F [PCM-0102476]	101%	100%	92.4%
0	0	0	0	0	C=CC(=O)N1CCC(C(=O)Nc2cc(C)on2)CC1 [PCM-0102477]	99.4%	115%	86.9%
0	0	0	0	0	C=CC(=O)N1CCCC(n2nc(C)nc2C)C1 (stereo not drawn) [PCM-0102479]	101%	111%	98.5%
0	0	0	0	0	C=CC(=O)N(C)C1CCCc2nc(CC)sc21 (stereo not drawn) [PCM-0102483]	98.1%	103%	97.3%
0	0	0	0.11	0	C=CC(=O)N(C)C1CCCCNC1=O (stereo not drawn) [PCM-0102484]	95.7%	101%	122%
0	0	0	0	0	C=CC(=O)NC(C)C(=O)N1CCc2ccccc21 (stereo not drawn) [PCM-0102486]	99.8%	89.6%	99%
0	0	0	0	0	C=CC(=O)N1CCC(CN2C(=O)CNC2=O)C1 (stereo not drawn) [PCM-0102488]	96.6%	114%	100%
0	0	0	0	0	C=CC(=O)N1CCNC(=O)C1c1c(F)cccc1Cl (stereo not drawn) [PCM-0102490]	98.5%	95.5%	104%
0	0.38	0	0	0	N#CSc1ccc(NC(=O)CCl)c(Cl)c1 [PCM-0102506]	20.6%	33.4%	51.9%
0	0	0	0	0	C=CC(=O)N1CCCCC1C(=O)O (stereo not drawn) [PCM-0102507]	101%	109%	95.6%
0	0	0.15	0.07	0	Cc1ccc([N+](=O)[O-])c(NC(=O)CCl)c1C [PCM-0102511]	91.5%	75.4%	56.3%
0	0	0	0	0	O=C(CCl)N1CCCCC1 [PCM-0102514]	92.8%	88.1%	90.8%
0	0	0	0	0	C=CC(=O)N1CCCCC1c1ncon1 (stereo not drawn) [PCM-0102517]	101%	120%	91.3%
0	0	0	0.35	0	C=CC(=O)NC1CCC(c2nc(C)no2)CC1 (stereo not drawn) [PCM-0102521]	101%	116%	83%
0.09	0	0	0	0	C=CC(=O)N1CCCC(c2ncc(C(F)(F)F)[nH]2)C1 (stereo not drawn) [PCM-0102527]	98.6%	129%	109%
0	0	0	0	0	C=CC(=O)N1CCN(C(=O)Cc2c(C)noc2C)CC1 [PCM-0102531]	106%	106%	91.3%
0	0.68	0.18	0.33	0	CC(C)c1ccc(NC(=O)CCl)cc1 [PCM-0102532]	12.7%	40.4%	7.1%
0	0	0	0	0	CNC(=O)NC(=O)CCl [PCM-0102534]	97.9%	94.3%	92.2%
0	0	0	0	0	C=CC(=O)NNC(=O)c1ccccc1 [PCM-0102541]	106%	112%	106%
0	0.16	0	0.33	0	COC(=O)c1cc(NC(=O)CCl)cn1C [PCM-0102545]	54.5%	65.4%	12.7%
0	0	0.34	0	0	C=CC(=O)Nc1nc(C)cc(C)n1 [PCM-0102547]	98.2%	100%	133%
0	0.11	0	0	0	C=CC(=O)N1CCC(c2nccn2C)C1 (stereo not drawn) [PCM-0102553]	99.3%	128%	103%
0.12	0	0	0	0	C=CC(=O)N1CCC2(CC1)CCS(=O)(=O)CC2 [PCM-0102559]	105%	113%	113%
0	0.19	0	0	0	C=CC(=O)N1CC2(CCCC2)c2cc3c(cc2C1C)OCCO3 (stereo not drawn) [PCM-0102560]	102%	110%	116%
0	0.07	0	0.04	0	C=CC(=O)NCC1=CS(=O)(=O)c2ccccc21 [PCM-0102563]	102%	110%	82.9%

From publication PMC6556873, “Rapid Covalent-Probe Discovery by Electrophile-Fragment Screening” (Journal of the American Chemical Society, 2019)
